Assay results taken from patent US8883799B2, “Tricyclic PI3K inhibitor compounds and methods of use” (Genentech, Inc., priority 2010, dated 2014).

Target: T1, p110 alpha PI3K (Homo sapiens, UniProt P42336)
T1 construct: purchased Upstate Cell Signaling Solutions, Charlottesville, Va
Experiment: p110α (alpha) PI3K binding assay (fluorescence polarization; alternatively radiometric)
Conditions: read-out: IC50, Ki (μmole) PI3K, p110 alpha binding assay
Experimental: Binding Assays: Initial polarization experiments were performed on an Analyst HT® 96-384 (Molecular Devices Corp, Sunnyvale, Calif.). […] After an incubation time of 30 minutes at room temperature, the reactions were stopped by the addition of GRP-1 and PIP3-TAMRA probe (Echelon-Inc., Salt Lake City, Utah) 100 nM and 5 nM final concentrations respectively. Read with standard cut-off filters for the rhodamine fluorophore (λex=530 nm; λem=590 nm) in 384-well black low volume Proxiplates® (PerkinElmer, Wellesley, Mass.) Fluorescence polarization values were plotted as a function of the protein concentration, and the EC50 values were obtained by fitting the data to a 4-parameter equation using KaleidaGraph® software (Synergy software, Reading, Pa.). This experiment also establishes the appropriate protein concentration to use in subsequent competition experiments with inhibitors.
After an incubation time of 30 minutes at room temperature, the reactions were stopped by the addition of GRP-1 and PIP3-TAMRA probe (Echelon-Inc., Salt Lake City, Utah) 100 nM and 5 nM final concentrations respectively. Read with standard cut-off filters for the rhodamine fluorophore (λex=530 nm; λem=590 nm) in 384-well black low volume PROXIPLATES® (PerkinElmer, Wellesley, Mass.) Fluorescence polarization values were plotted as a function of the antagonist concentration, and the IC50 values were obtained by fitting the data to a 4-parameter equation in Assay Explorer® software (MDL, San Ramon, Calif.).
The Formula I compound was serially diluted in 100% DMSO. The kinase reaction was incubated for 1 hr at room temperature, and the reaction was terminated by the addition of PBS. IC50 values were subsequently determined using sigmoidal dose-response curve fit (variable slope).

T1 sequence (P42336 whole entry): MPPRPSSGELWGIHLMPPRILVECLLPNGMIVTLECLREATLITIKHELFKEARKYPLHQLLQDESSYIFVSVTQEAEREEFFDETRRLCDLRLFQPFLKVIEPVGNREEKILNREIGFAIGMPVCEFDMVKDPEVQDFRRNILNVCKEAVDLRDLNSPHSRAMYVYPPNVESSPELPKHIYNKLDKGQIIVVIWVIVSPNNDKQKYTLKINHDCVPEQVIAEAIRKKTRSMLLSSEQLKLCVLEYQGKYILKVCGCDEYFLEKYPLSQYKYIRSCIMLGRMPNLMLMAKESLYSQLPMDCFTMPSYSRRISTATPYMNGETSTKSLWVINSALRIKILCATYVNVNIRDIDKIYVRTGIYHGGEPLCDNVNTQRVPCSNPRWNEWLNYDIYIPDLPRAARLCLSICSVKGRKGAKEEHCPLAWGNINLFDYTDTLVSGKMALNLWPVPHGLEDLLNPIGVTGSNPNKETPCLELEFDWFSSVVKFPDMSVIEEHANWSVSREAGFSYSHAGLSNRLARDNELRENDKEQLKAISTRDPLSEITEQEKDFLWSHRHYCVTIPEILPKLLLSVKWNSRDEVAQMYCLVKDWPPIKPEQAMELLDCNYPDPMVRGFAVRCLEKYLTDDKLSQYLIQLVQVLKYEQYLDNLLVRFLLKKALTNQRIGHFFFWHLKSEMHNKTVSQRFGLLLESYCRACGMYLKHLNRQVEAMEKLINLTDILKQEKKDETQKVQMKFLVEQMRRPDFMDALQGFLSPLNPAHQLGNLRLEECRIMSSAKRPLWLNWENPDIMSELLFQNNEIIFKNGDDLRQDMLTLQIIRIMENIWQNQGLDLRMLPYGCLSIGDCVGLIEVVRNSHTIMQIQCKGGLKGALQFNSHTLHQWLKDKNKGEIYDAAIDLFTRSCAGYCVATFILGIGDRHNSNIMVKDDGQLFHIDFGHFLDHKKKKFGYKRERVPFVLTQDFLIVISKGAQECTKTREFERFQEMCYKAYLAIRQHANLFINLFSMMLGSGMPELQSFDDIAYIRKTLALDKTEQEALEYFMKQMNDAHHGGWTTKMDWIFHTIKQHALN
T1 sequence (P27986 whole entry partner): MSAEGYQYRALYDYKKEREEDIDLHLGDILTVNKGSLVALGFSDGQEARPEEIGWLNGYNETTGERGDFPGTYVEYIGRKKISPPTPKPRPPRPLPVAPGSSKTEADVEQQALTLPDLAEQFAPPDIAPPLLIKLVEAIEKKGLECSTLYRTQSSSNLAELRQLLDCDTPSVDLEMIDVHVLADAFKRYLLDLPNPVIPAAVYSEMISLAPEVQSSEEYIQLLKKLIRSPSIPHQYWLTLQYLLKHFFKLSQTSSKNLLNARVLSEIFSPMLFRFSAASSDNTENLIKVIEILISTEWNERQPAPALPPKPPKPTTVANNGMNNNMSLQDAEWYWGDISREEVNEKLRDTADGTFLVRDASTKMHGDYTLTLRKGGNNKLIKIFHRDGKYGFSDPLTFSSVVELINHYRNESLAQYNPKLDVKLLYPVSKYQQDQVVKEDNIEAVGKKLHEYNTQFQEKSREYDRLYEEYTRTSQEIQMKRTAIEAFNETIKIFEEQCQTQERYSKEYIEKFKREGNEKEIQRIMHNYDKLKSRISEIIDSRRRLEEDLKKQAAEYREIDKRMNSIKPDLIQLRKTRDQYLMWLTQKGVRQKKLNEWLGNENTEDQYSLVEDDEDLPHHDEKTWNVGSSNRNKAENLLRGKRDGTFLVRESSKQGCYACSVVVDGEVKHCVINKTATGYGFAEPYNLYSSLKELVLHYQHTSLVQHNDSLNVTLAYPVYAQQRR

IC50 [nM] | SMILES
> 695 | Cn1cc(-c2nc(N3CCOCC3)c3nc4n(c3n2)CCOC4(C)C)cn1 [Compound 127, 6,6-dimethyl-2-(1-methyl-1H-pyrazol-4-yl)-4-morpholino-8,9-dihydro-6H-[1,4]oxazino[3,4-e]purine]
> 695 | CC1(C)OCCn2c1nc1c(N3CCOCC3)nc(-c3ccc4[nH]ncc4c3)nc12 [Compound 129, 2-(1H-indazol-5-yl)-6,6-dimethyl-4-morpholino-8,9-dihydro-6H-[1,4]oxazino[3,4-e]purine]
> 695 | CN1CCN(c2cc(-c3nc(N4CCOCC4)c4nc5n(c4n3)CCOC5(C)C)ccn2)CC1 [Compound 130, 6,6-dimethyl-2-(2-(4-methylpiperazin-1-yl)yridine-4-yl)-4-morpholino-8,9-dihydro-6H-[1,4]oxazino[3,4-e]purine]
> 695 | CC1(C)OCCn2c1nc1c(N3CCOCC3)nc(-c3cnn(Cc4ccccc4)c3)nc12 [Compound 133, 2-(1-benzyl-1H-pyrazol-4-yl)-6,6-dimethyl-4-morpholino-8,9-dihydro-6H-[1,4]oxazino[3,4-e]purine]
> 695 | CC(=O)Nc1ccccc1-c1nc(N2CCOCC2)c2nc3n(c2n1)CCOC3(C)C [Compound 135, N-(2-(6,6-dimethyl-4-morpholino-8,9-dihydro-6H-[1,4]oxazino[3,4-e]purin-2-yl)phenyl)acetamide]
> 695 | CC1(C)OCCn2c1nc1c(N3CCOCC3)nc(-c3ccc(O)nc3)nc12 [Compound 137, 5-(6,6-dimethyl-4-morpholino-8,9-dihydro-6H-[1,4]oxazino[3,4-e]purin-2-yl)pyridine-2-ol]
> 695 | CCn1cc(-c2nc(N3CCOCC3)c3nc4n(c3n2)CCOC4(C)C)cn1 [Compound 141, 2-(1-ethyl-1H-pyrazol-4-yl)-6,6-dimethyl-4-morpholino-8,9-dihydro-6H-[1,4]oxazino[3,4-e]purine]
> 695 | CC1(C)OCCn2c1nc1c(N3CCOCC3)nc(-c3cccc(N4CCOCC4)c3)nc12 [Compound 145, 6,6-dimethyl-4-morpholino-2-(3-morpholinophenyl)-8,9-dihydro-6H-[1,4]oxazino[3,4-e]purine]
> 695 | CC1(C)OCCn2c1nc1c(N3CCOCC3)nc(-c3cccc(OCc4ccccc4)c3)nc12 [Compound 147, 2-(3-(benzyloxy)phenyl)-6,6-dimethyl-4-morpholino-8,9-dihydro-6H-[1,4]oxazino[3,4-e]purine]
> 695 | CN1CCN(c2ccc(-c3nc(N4CCOCC4)c4nc5n(c4n3)CCOC5(C)C)cn2)CC1 [Compound 149, 6,6-dimethyl-2-(6-(4-methylpiperazin-1-yl)yridine-3-yl)-4-morpholino-8,9-dihydro-6H-[1,4]oxazino[3,4-e]purine]
> 695 | CC1(C)OCCn2c1nc1c(N3CCOCC3)nc(-c3ccc(OCc4ccccc4)cc3)nc12 [Compound 154, 2-(4-(benzyloxy)phenyl)-6,6-dimethyl-4-morpholino-8,9-dihydro-6H-[1,4]oxazino[3,4-e]purine]
> 695 | CN(C)c1cccc(-c2nc(N3CCOCC3)c3nc4n(c3n2)CCOC4(C)C)c1 [Compound 155, 3-(6,6-dimethyl-4-morpholino-8,9-dihydro-6H-[1,4]oxazino[3,4-e]purin-2-yl)-N,N-dimethylaniline]

The remaining lines, values behind:

SMILES | IC50 [nM]
CC1(C)OCCn2c1nc1c(N3CCOCC3)nc(-c3ccc(N4CCOCC4)nc3)nc12 [Compound 132, 6,6-dimethyl-4-morpholino-2-(6-morpholinopyridin-3-yl)-8,9-dihydro-6H-[1,4]oxazino[3,4-e]purine] | > 695
CC(C)Oc1ncccc1-c1nc(N2CCOCC2)c2nc3n(c2n1)CCOC3(C)C [Compound 134, 2-(2-isopropoxypyridin-3-yl)-6,6-dimethyl-4-morpholino-8,9-dihydro-6H-[1,4]oxazino[3,4-e]purine] | > 695
Cc1n[nH]c(C)c1-c1nc(N2CCOCC2)c2nc3n(c2n1)CCOC3(C)C [Compound 136, 2-(3,5-dimethyl-1H-pyrazol-4-yl)-6,6-dimethyl-4-morpholino-8,9-dihydro-6H-[1,4]oxazino[3,4-e]purine] | > 695
CN(C)C(=O)c1ccc(-c2nc(N3CCOCC3)c3nc4n(c3n2)CCOC4(C)C)cc1 [Compound 142, 4-(6,6-dimethyl-4-morpholino-8,9-dihydro-6H-[1,4]oxazino[3,4-e]purin-2-yl)-N,N-dimethylbenzamide] | > 695
CN(C(=O)OC(C)(C)C)c1ccc(-c2nc(N3CCOCC3)c3nc4n(c3n2)CCOC4(C)C)cc1 [Compound 143, tert-butyl 4-(6,6-dimethyl-4-morpholino-8,9-dihydro-6H-[1,4]oxazino[3,4-e]purin-2-yl)phenyl(methyl)carbamate] | > 695
CC1(C)OCCn2c1nc1c(N3CCOCC3)nc(-c3cccc(CC#N)c3)nc12 [Compound 144, 2-(3-(6,6-dimethyl-4-morpholino-8,9-dihydro-6H-[1,4]oxazino[3,4-e]purin-2-yl)phenyl)acetonitrile] | > 695
CC1(C)OCCn2c1nc1c(N3CCOCC3)nc(-c3cccc(CN4CCOCC4)c3)nc12 [Compound 146, 6,6-dimethyl-4-morpholino-2-(3-(morpholinomethyl)phenyl)-8,9-dihydro-6H-[1,4]oxazino[3,4-e]purine] | > 695
CC1(C)OCCn2c1nc1c(N3CCOCC3)nc(-c3ccc(C#N)cc3)nc12 [Compound 151, 4-(6,6-dimethyl-4-morpholino-8,9-dihydro-6H-[1,4]oxazino[3,4-e]purin-2-yl)benzonitrile] | > 695
CNC(=O)c1ccc(-c2nc(N3CCOCC3)c3nc4n(c3n2)CCOC4(C)C)cn1 [Compound 153, 5-(6,6-dimethyl-4-morpholino-8,9-dihydro-6H-[1,4]oxazino[3,4-e]purin-2-yl)-N-methylpicolinamide] | > 695
CN1CCN(c2ccc(-c3nc(N4CCOCC4)c4nc5n(c4n3)CCOC5(C)C)cc2)CC1 [Compound 156, 6,6-dimethyl-2-(4-(4-methylpiperazin-1-yl)phenyl)-4-morpholino-8,9-dihydro-6H-[1,4]oxazino[3,4-e]purine] | > 695
CC1(C)OCCn2c1nc1c(N3CCOCC3)nc(-c3ccc(N4CCCCC4)cc3)nc12 [Compound 157, 6,6-dimethyl-4-morpholino-2-(4-(piperidin-1-yl)phenyl)-8,9-dihydro-6H-[1,4]oxazino[3,4-e]purine] | > 695
CN1CCN(C(=O)c2ccc(-c3nc(N4CCOCC4)c4nc5n(c4n3)CCOC5(C)C)cc2)CC1 [Compound 161, (4-(6,6-dimethyl-4-morpholino-8,9-dihydro-6H-[1,4]oxazino[3,4-e]purin-2-yl)phenyl)(4-methylpiperazin-1-yl)methanone] | > 695
CC1(C)OCCn2c1nc1c(N3CCOCC3)nc(-c3cccc(C(=O)NC4CC4)c3)nc12 [Compound 162, N-cyclopropyl-3-(6,6-dimethyl-4-morpholino-8,9-dihydro-6H-[1,4]oxazino[3,4-e]purin-2-yl)benzamide] | > 695

System: MDA-MB-361.1
Experiment: In vitro cell proliferation assay (CellTiter-Glo), MDA-MB-361.1
Format: cell-based
Conditions: Cell line: MDA-MB-361.1; Tissue type: breast; Mutation Status: PI3K; read-out: EC50 (μmole)
Experimental: (§1) Efficacy of Formula I compounds was measured by a cell proliferation assay employing the following protocol (Promega Corp. Technical Bulletin TB288; Mendoza et al (2002) Cancer Res. 62:5485-5488):
(§2) 1. An aliquot of 100 μl of cell culture containing about 10^4 cells (PC3, Detroit562, or MDAMB361.1) in medium was deposited in each well of a 384-well, opaque-walled plate.
(§3) 2. Control wells were prepared containing medium and without cells.
(§4) 3. The compound was added to the experimental wells and incubated for 3-5 days.
(§5) 4. The plates were equilibrated to room temperature for approximately 30 minutes.
(§6) 5. A volume of CellTiter-Glo® Reagent equal to the volume of cell culture medium present in each well was added.
(§7) 6. The contents were mixed for 2 minutes on an orbital shaker to induce cell lysis.
(§8) 7. The plate was incubated at room temperature for 10 minutes to stabilize the luminescence signal.
(§9) 8. Luminescence was recorded and reported in graphs as RLU=relative luminescence units.
(§10) Alternatively, cells were seeded at optimal density in a 96 well plate and incubated for 4 days in the presence of test compound. Alamar Blue™ was subsequently added to the assay medium, and cells were incubated for 6 hr before reading at 544 nm excitation, 590 nm emission. EC50 values were calculated using a sigmoidal dose response curve fit. The term EC50 refers to the half maximal effective concentration and is the concentration at which a drug induces a response halfway between the baseline and maximum after some specified exposure time. It is commonly used as a measure of drug potency.
(§11) The anti-proliferative effects of Formula I exemplary compounds were measured by the CellTiter-Glo® Assay against various tumor cell lines, including the following: […]

EC50 [nM] | SMILES
315 | CCNC(=O)Nc1ccc(-c2nc(N3CCOCC3)c3c(n2)C2(C)CCOC2N3C)cc1 (centres unmarked) [Compound 101, 1-[4-(3a,8-dimethyl-7-morpholin-4-yl-3,3a,8,8a-tetrahydro-2h-1-oxa-4,6,8-triaza-cyclopenta[a]inden-5-yl)-phenyl]-3-ethyl-urea]
81 | Cc1nc(N)ncc1-c1nc(N2CCOCC2)c2nc3n(c2n1)CCOC3(C)C [Compound 102, 5-(6,6-dimethyl-4-morpholino-8,9-dihydro-6h-[1,4]oxazino[3,4-e]purin-2-yl)-4-methylpyrimidin-2-amine]

System: PC3
Experiment: In vitro cell proliferation assay (CellTiter-Glo), PC3
Format: cell-based
Conditions: Homo sapiens, PC-3; Cell line: PC3; Tissue type: prostate; Mutation Status: PTEN; read-out: EC50 (μmole)
Experimental: as §1, §2, §3, §4, §5, §6, §7, §8, §9, §10, §11

EC50 [nM] | SMILES
208 | CCNC(=O)Nc1ccc(-c2nc(N3CCOCC3)c3c(n2)C2(C)CCOC2N3C)cc1 (centres unmarked) [Compound 101, 1-[4-(3a,8-dimethyl-7-morpholin-4-yl-3,3a,8,8a-tetrahydro-2h-1-oxa-4,6,8-triaza-cyclopenta[a]inden-5-yl)-phenyl]-3-ethyl-urea]
2000 | Cc1nc(N)ncc1-c1nc(N2CCOCC2)c2nc3n(c2n1)CCOC3(C)C [Compound 102, 5-(6,6-dimethyl-4-morpholino-8,9-dihydro-6h-[1,4]oxazino[3,4-e]purin-2-yl)-4-methylpyrimidin-2-amine]
